Reference: US20100016423A1, “USE OF DRONEDARONE FOR THE TREATMENT OF PATIENTS WITH ARRHYTHMIA AND HAVING AN INCREASE OF CREATININE LEVEL DUE TO DRONEDARONE ADMINISTRATION” (SANOFI-AVENTIS, priority 2008, published 2010)

Tests used:
[1] = Clinical trials with dronedarone: serum creatinine levels; assay type: in vivo
Protocol: The instant invention therefore relates to a method of managing the risk of an increased morbidity and mortality rate in patients treated by an association of dronedarone or one of its pharmaceutically acceptable salts and of at least a compound B selected from ACE inhibitors, angiotensin II receptor antagonists and potassium sparing diuretics. Said method is performed by performing the following steps: • a) initially measuring serum creatinine levels, such as within one week after initiation of treatment with dronedarone, which provides a reference level, • b) monitoring serum creatinine levels at regular intervals during treatment of the patient by the compound B (as recommended in the labelling of compound B), • c) if the serum creatinine levels increases above the reference level, clinical judgement should be made to determine if the increase is due to dronedarone, to compound B or to another cause, • d) to help clinical judgment and evaluate if the increase is due to dronedarone, dronedarone can be temporarily interrupted.
Concerning step a) of the methods of the invention, as mentioned before, in most patients with atrial fibrillation or atrial flutter the maximal increase in creatinine levels, compared to the level before administration of dronedarone, was smaller than 30%, with a mean increase ranging from 10 to 15% or more. Then during the treatment with dronedarone, mean creatinine levels remain stable, this corresponds to a plateau.

[2] = ANDROMEDA (EFC4966) clinical trial in patients with a recent severe episode of Congestive Heart failure; assay type: in vivo; details: 400 mg BID
Protocol: Despite the equal distribution of treatment with ACE inhibitors/AII receptor antagonists at baseline, concomitant treatment with these drugs became unbalanced during the course of the ANDROMEDA study, as more patients in the dronedarone 400 mg BID group discontinued these treatments and fewer started them (table 2).
In the dronedarone 400 mg BID group, 14 of 41 patients who discontinued ACE/AII experienced “blood creatinine increased” or “renal impairment” adverse events, versus none among the 18 patients taking placebo in this category. This observation supports the hypothesis that an increase in serum creatinine observed in patients taking dronedarone may have led investigators to discontinue ACE/AII treatment (table 4).

[3] = Specific study in healthy subjects: renal handling of creatinine; assay type: in vivo
[4] = Br. J. Clin. Pharmac., 1993, 36, 125-127; cited from earlier work

SMILES: CCCCc1oc2ccc(NS(C)(=O)=O)cc2c1C(=O)c1ccc(OCCCN(CCCC)CCCC)cc1 [dronedarone, 2-n-butyl-3-[4-(3-di-n-butylaminopropoxy)benzoyl]-5-methylsulfonamido-benzofuran]
- change in serum creatinine levels of the patient ([1]; administration of dronedarone in clinical trials): slight increase
- return of creatinine levels to baseline after treatment discontinuation ([1]; after treatment discontinuation): within three days
- time of occurrence of creatinine increase after treatment initiation ([1]; after treatment initiation): within two days
- return of creatinine to baseline after temporary interruption of dronedarone ([1]; demonstrated in another clinical trial): ≤ 5 days
- creatinine levels during treatment ([1]; during treatment): remained stable
- maximal increase in creatinine levels compared to the level before administration ([1]; most patients with atrial fibrillation or atrial flutter): smaller than 30%
- patients who died among those who never interrupted ACE inhibitors/AII receptor antagonists [2]: 4%
- patients who discontinued ACE/AII and experienced blood creatinine increased or renal impairment adverse events ([2]; of 41 patients who discontinued ACE/AII): 14 patients
- effect on creatinine secretion at the tubular level [3]: inhibition of creatinine secretion at the tubular level
- effect on glomerular filtration [3]: no effect
- effect on renal blood flow [3]: no effect

SMILES: CN/C(=N/CCSCc1nc[nH]c1C)NC#N [cimetidine]
- tubular secretion of creatinine [4]: decrease in the tubular secretion of creatinine

SMILES: COc1cc(Cc2cnc(N)nc2N)cc(OC)c1OC [trimethoprim]
- tubular secretion of creatinine [4]: decrease in the tubular secretion of creatinine

SMILES: CCCCc1oc2ccccc2c1C(=O)c1cc(I)c(OCCN(CC)CC)c(I)c1 [amiodarone]
- tubular secretion of creatinine [4]: decrease in the tubular secretion of creatinine
